{
  "source": "ChEMBL document CHEMBL1201862",
  "about": "“PubChem BioAssay data set” (2004)",
  "assay_in_all_cases": "NCI tumour cell line growth inhibition, 48 h",
  "key": {"[1]": {"tested_on": "HCC 2998"}, "[2]": {"tested_on": "EKVX"}, "[3]": {"tested_on": "Malme-3M"}, "[4]": {"tested_on": "COLO 205"}, "[5]": {"tested_on": "HOP-62"}, "[6]": {"tested_on": "SNB-75"}, "[7]": {"tested_on": "UACC-257"}, "[8]": {"tested_on": "LOX IMVI"}, "[9]": {"tested_on": "SK-MEL-2"}, "[10]": {"tested_on": "UO-31"}, "[11]": {"tested_on": "HCT-15"}, "[12]": {"tested_on": "DU-145"}, "[13]": {"tested_on": "MDA-N"}, "[14]": {"tested_on": "T47D"}, "[15]": {"tested_on": "SK-OV-3"}, "[16]": {"tested_on": "NCI/ADR-RES"}, "[17]": {"tested_on": "OVCAR-3"}, "[18]": {"tested_on": "HL-60"}, "[19]": {"tested_on": "HOP-92"}, "[20]": {"tested_on": "RXF 393"}, "[21]": {"tested_on": "SF-268"}, "[22]": {"tested_on": "MDA-MB-435"}, "[23]": {"tested_on": "SR"}, "[24]": {"tested_on": "SW-620"}, "[25]": {"tested_on": "NCI-H522"}, "[26]": {"tested_on": "HT-29"}, "[27]": {"tested_on": "SF-539"}, "[28]": {"tested_on": "OVCAR-4"}, "[29]": {"tested_on": "SN12C"}, "[30]": {"tested_on": "K562"}, "[31]": {"tested_on": "786-0"}, "[32]": {"tested_on": "MOLT-4"}, "[33]": {"tested_on": "M14"}, "[34]": {"tested_on": "KM12"}, "[35]": {"tested_on": "PC-3"}, "[36]": {"tested_on": "SNB-19"}, "[37]": {"tested_on": "CCRF-CEM"}, "[38]": {"tested_on": "RPMI-8226"}, "[39]": {"tested_on": "SK-MEL-5"}, "[40]": {"tested_on": "NCI-H23"}, "[41]": {"tested_on": "MCF7"}, "[42]": {"tested_on": "UACC-62"}, "[43]": {"tested_on": "SF-295"}, "[44]": {"tested_on": "A549"}, "[45]": {"tested_on": "TK-10"}, "[46]": {"tested_on": "NCI-H226"}, "[47]": {"tested_on": "OVCAR-8"}, "[48]": {"tested_on": "U-251"}, "[49]": {"tested_on": "NCI-H460"}, "[50]": {"tested_on": "SK-MEL-28"}, "[51]": {"tested_on": "HCT-116"}, "[52]": {"tested_on": "CAKI-1"}, "[53]": {"tested_on": "Hs-578T"}, "[54]": {"tested_on": "ACHN"}, "[55]": {"tested_on": "OVCAR-5"}, "[56]": {"tested_on": "MDA-MB-231"}, "[57]": {"tested_on": "IGROV-1"}},
  "note": "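Each compound was tested at five concentrations against cells in 96-well plates for 48 hours. Here, GI50 denotes the concentration required for 50% inhibition of growth.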 The source made the active and inactive calls. Cut-off read from the data, not from the text of the source: active = GI50 up to about 1.1 µM and inactive = higher.",
  "data": [
    {"smiles": "CC(NCc1c(O)ccc2ccc(=O)oc12)C(=O)O", "note": "(configuration not stated)", "values": [
      {"measurement": "GI50", "setting": "[1]", "value": "> 100 µM (inactive)"},
      {"measurement": "GI50", "setting": "[2]", "value": "> 100 µM (inactive)"},
      {"measurement": "GI50", "setting": "[3]", "value": "> 100 µM (inactive)"},
      {"measurement": "GI50", "setting": "[4]", "value": "> 100 µM (inactive)"},
      {"measurement": "GI50", "setting": "[5]", "value": "> 100 µM (inactive)"},
      {"measurement": "GI50", "setting": "[6]", "value": "> 100 µM (inactive)"},
      {"measurement": "GI50", "setting": "[7]", "value": "> 100 µM (inactive)"},
      {"measurement": "GI50", "setting": "[8]", "value": "> 100 µM (inactive)"},
      {"measurement": "GI50", "setting": "[9]", "value": "> 100 µM (inactive)"},
      {"measurement": "GI50", "setting": "[10]", "value": "> 100 µM (inactive)"},
      {"measurement": "GI50", "setting": "[11]", "value": "> 100", "unit": "µM"},
      {"measurement": "GI50", "setting": "[12]", "value": "> 100 µM (inactive)"},
      {"measurement": "GI50", "setting": "[13]", "value": "> 100 µM (inactive)"},
      {"measurement": "GI50", "setting": "[14]", "value": "> 100 µM (inactive)"},
      {"measurement": "GI50", "setting": "[15]", "value": "> 100 µM (inactive)"},
      {"measurement": "GI50", "setting": "[16]", "value": "> 100 µM (inactive)"},
      {"measurement": "GI50", "setting": "[17]", "value": "> 100 µM (inactive)"},
      {"measurement": "GI50", "setting": "[18]", "value": "> 100 µM (inactive)"},
      {"measurement": "GI50", "setting": "[19]", "value": "> 100 µM (inactive)"},
      {"measurement": "GI50", "setting": "[20]", "value": "> 100 µM (inactive)"},
      {"measurement": "GI50", "setting": "[21]", "value": "> 100 µM (inactive)"},
      {"measurement": "GI50", "setting": "[22]", "value": "> 100 µM (inactive)"},
      {"measurement": "GI50", "setting": "[23]", "value": "> 100 µM (inactive)"},
      {"measurement": "GI50", "setting": "[24]", "value": "> 100 µM (inactive)"},
      {"measurement": "GI50", "setting": "[25]", "value": "> 100 µM (inactive)"},
      {"measurement": "GI50", "setting": "[26]", "value": "> 100 µM (inactive)"},
      {"measurement": "GI50", "setting": "[27]", "value": "> 100 µM (inactive)"},
      {"measurement": "GI50", "setting": "[28]", "value": "> 100 µM (inactive)"},
      {"measurement": "GI50", "setting": "[29]", "value": "> 100 µM (inactive)"},
      {"measurement": "GI50", "setting": "[30]", "value": "> 100 µM (inactive)"},
      {"measurement": "GI50", "setting": "[31]", "value": "> 100 µM (inactive)"},
      {"measurement": "GI50", "setting": "[32]", "value": "> 100 µM (inactive)"},
      {"measurement": "GI50", "setting": "[33]", "value": "> 100 µM (inactive)"},
      {"measurement": "GI50", "setting": "[34]", "value": "> 100 µM (inactive)"},
      {"measurement": "GI50", "setting": "[35]", "value": "> 100 µM (inactive)"},
      {"measurement": "GI50", "setting": "[36]", "value": "> 100 µM (inactive)"},
      {"measurement": "GI50", "setting": "[37]", "value": "> 100 µM (inactive)"},
      {"measurement": "GI50", "setting": "[38]", "value": "> 100 µM (inactive)"},
      {"measurement": "GI50", "setting": "[39]", "value": "> 100 µM (inactive)"},
      {"measurement": "GI50", "setting": "[40]", "value": "> 100 µM (inactive)"},
      {"measurement": "GI50", "setting": "[41]", "value": "> 100 µM (inactive)"},
      {"measurement": "GI50", "setting": "[42]", "value": "> 100 µM (inactive)"},
      {"measurement": "GI50", "setting": "[43]", "value": "> 100 µM (inactive)"},
      {"measurement": "GI50", "setting": "[44]", "value": "> 100 µM (inactive)"},
      {"measurement": "GI50", "setting": "[45]", "value": "> 100 µM (inactive)"},
      {"measurement": "GI50", "setting": "[46]", "value": "> 100 µM (inactive)"},
      {"measurement": "GI50", "setting": "[47]", "value": "> 100 µM (inactive)"},
      {"measurement": "GI50", "setting": "[48]", "value": "> 100 µM (inactive)"},
      {"measurement": "GI50", "setting": "[49]", "value": "> 100 µM (inactive)"},
      {"measurement": "GI50", "setting": "[50]", "value": "> 100 µM (inactive)"},
      {"measurement": "GI50", "setting": "[51]", "value": "> 100 µM (inactive)"},
      {"measurement": "GI50", "setting": "[52]", "value": "> 100 µM (inactive)"},
      {"measurement": "GI50", "setting": "[53]", "value": "> 100 µM (inactive)"},
      {"measurement": "GI50", "setting": "[54]", "value": "> 100 µM (inactive)"},
      {"measurement": "GI50", "setting": "[55]", "value": "> 100 µM (inactive)"},
      {"measurement": "GI50", "setting": "[56]", "value": "> 100 µM (inactive)"},
      {"measurement": "GI50", "setting": "[57]", "value": "> 100 µM (inactive)"}
    ]}
  ]
}
